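Five compound concentrations were applied to cells in 96-well plates for 48 hours; endpoints were derived by simple linear interpolation of the resulting dose-response curve. Definition used: TGI = concentration required for complete inhibition of growth.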
Assays:
Test in all cases: inhibition of tumour cell growth, NCI panel, 48 h
786-0 renal = test system: 786-0 renal
A498 renal = test system: A498 renal
A549 NSCLC = test system: A549 NSCLC
ACHN renal = test system: ACHN renal
CAKI-1 renal = test system: CAKI-1 renal
CCRF-CEM leukemia = test system: CCRF-CEM leukemia
COLO 205 colon = test system: COLO 205 colon
DU-145 prostate = test system: DU-145 prostate
EKVX NSCLC = test system: EKVX NSCLC
HCC-2998 colon = test system: HCC-2998 colon
HCT-116 colon = test system: HCT-116 colon
HCT-15 colon = test system: HCT-15 colon
HL-60(TB) leukemia = test system: HL-60(TB) leukemia
HOP-62 NSCLC = test system: HOP-62 NSCLC
HOP-92 NSCLC = test system: HOP-92 NSCLC
HS 578T breast = test system: HS 578T breast
HT29 colon = test system: HT29 colon
IGROV1 ovarian = test system: IGROV1 ovarian
KM12 colon = test system: KM12 colon
LOX IMVI melanoma = test system: LOX IMVI melanoma
M14 melanoma = test system: M14 melanoma
MALME-3M melanoma = test system: MALME-3M melanoma
MCF7 breast = test system: MCF7 breast
MDA-MB-231 breast = test system: MDA-MB-231 breast
MDA-MB-435 = test system: MDA-MB-435
MDA-N = test system: MDA-N
MOLT-4 leukemia = test system: MOLT-4 leukemia
NCI-H226 lung = test system: NCI-H226 lung
NCI-H23 lung = test system: NCI-H23 lung
NCI-H460 lung = test system: NCI-H460 lung
NCI-H522 lung = test system: NCI-H522 lung
NCI/ADR-RES ovarian = test system: NCI/ADR-RES ovarian
OVCAR-3 ovarian = test system: OVCAR-3 ovarian
OVCAR-4 ovarian = test system: OVCAR-4 ovarian
OVCAR-5 ovarian = test system: OVCAR-5 ovarian
OVCAR-8 ovarian = test system: OVCAR-8 ovarian
PC-3 prostate = test system: PC-3 prostate
RPMI-8226 leukemia = test system: RPMI-8226 leukemia
RXF 393 renal = test system: RXF 393 renal
SF-268 CNS = test system: SF-268 CNS
SF-295 CNS = test system: SF-295 CNS
SF-539 CNS = test system: SF-539 CNS
SK-MEL-2 melanoma = test system: SK-MEL-2 melanoma
SK-MEL-28 melanoma = test system: SK-MEL-28 melanoma
SK-MEL-5 melanoma = test system: SK-MEL-5 melanoma
SK-OV-3 ovarian = test system: SK-OV-3 ovarian
SN12C renal = test system: SN12C renal
SNB-19 CNS = test system: SNB-19 CNS
SNB-75 CNS = test system: SNB-75 CNS
SR leukemia = test system: SR leukemia
SW-620 colon = test system: SW-620 colon
T-47D breast = test system: T-47D breast
TK-10 renal = test system: TK-10 renal
U251 CNS = test system: U251 CNS
UACC-257 melanoma = test system: UACC-257 melanoma
UACC-62 melanoma = test system: UACC-62 melanoma
UO-31 renal = test system: UO-31 renal
BT-549 breast = test system: BT-549 breast
K-562 leukemia = test system: K-562 leukemia

## CCN(CC)CC1CCCCN1CC(=O)N1c2ccccc2C(=O)Nc2cccnc21 (stereo not drawn)
786-0 renal
  TGI: > 100 µM
A498 renal
  TGI: > 100 µM
A549 NSCLC
  TGI: 35.4 µM
ACHN renal
  TGI: > 100 µM
CAKI-1 renal
  TGI: > 100 µM
CCRF-CEM leukemia
  TGI: 38.5 µM
COLO 205 colon
  TGI: 64.6 µM
DU-145 prostate
  TGI: > 100 µM
EKVX NSCLC
  TGI: > 100 µM
HCC-2998 colon
  TGI: > 100 µM
HCT-116 colon
  TGI: 37.2 µM
HCT-15 colon
  TGI: > 100 µM
HL-60(TB) leukemia
  TGI: 35 µM
HOP-62 NSCLC
  TGI: > 100 µM
HOP-92 NSCLC
  TGI: > 100 µM
HS 578T breast
  TGI: > 100 µM
HT29 colon
  TGI: > 100 µM
IGROV1 ovarian
  TGI: > 100 µM
KM12 colon
  TGI: > 100 µM
LOX IMVI melanoma
  TGI: 57.2 µM
M14 melanoma
  TGI: > 100 µM
MALME-3M melanoma
  TGI: > 100 µM
MCF7 breast
  TGI: > 100 µM
MDA-MB-231 breast
  TGI: 75.8 µM
MDA-MB-435
  TGI: > 100 µM
MDA-N
  TGI: > 100 µM
MOLT-4 leukemia
  TGI: 55.5 µM
NCI-H226 lung
  TGI: 98.8 µM
NCI-H23 lung
  TGI: > 100 µM
NCI-H460 lung
  TGI: > 100 µM
NCI-H522 lung
  TGI: > 100 µM
NCI/ADR-RES ovarian
  TGI: 67.5 µM
OVCAR-3 ovarian
  TGI: > 100 µM
OVCAR-4 ovarian
  TGI: > 100 µM
OVCAR-5 ovarian
  TGI: > 100 µM
OVCAR-8 ovarian
  TGI: > 100 µM
PC-3 prostate
  TGI: > 100 µM
RPMI-8226 leukemia
  TGI: 74.2 µM
RXF 393 renal
  TGI: > 100 µM
SF-268 CNS
  TGI: > 100 µM
SF-295 CNS
  TGI: > 100 µM
SF-539 CNS
  TGI: > 100 µM
SK-MEL-2 melanoma
  TGI: > 100 µM
SK-MEL-28 melanoma
  TGI: > 100 µM
SK-MEL-5 melanoma
  TGI: > 100 µM
SK-OV-3 ovarian
  TGI: > 100 µM
SN12C renal
  TGI: > 100 µM
SNB-19 CNS
  TGI: > 100 µM
SNB-75 CNS
  TGI: > 100 µM
SR leukemia
  TGI: 58.1 µM
SW-620 colon
  TGI: > 100 µM
T-47D breast
  TGI: > 100 µM
TK-10 renal
  TGI: > 100 µM
U251 CNS
  TGI: > 100 µM
UACC-257 melanoma
  TGI: 75.2 µM
UACC-62 melanoma
  TGI: > 100 µM
UO-31 renal
  TGI: 4.96 µM

## CC(C)(C)OC(=O)NC(Cc1ccccc1)OCc1ccccc1 (stereo not drawn)
786-0 renal
  TGI: 31 µM
A549 NSCLC
  TGI: 32.8 µM
ACHN renal
  TGI: 35 µM
BT-549 breast
  TGI: 55.2 µM
CAKI-1 renal
  TGI: 37.8 µM
COLO 205 colon
  TGI: > 100 µM
DU-145 prostate
  TGI: 39.6 µM
EKVX NSCLC
  TGI: 35.9 µM
HCC-2998 colon
  TGI: 43.7 µM
HCT-116 colon
  TGI: 31.8 µM
HCT-15 colon
  TGI: 36.1 µM
HOP-62 NSCLC
  TGI: 37.8 µM
HS 578T breast
  TGI: 51.5 µM
HT29 colon
  TGI: 44.5 µM
IGROV1 ovarian
  TGI: > 10 µM
K-562 leukemia
  TGI: 66.2 µM
KM12 colon
  TGI: 37.4 µM
M14 melanoma
  TGI: 39.7 µM
MALME-3M melanoma
  TGI: 44.2 µM
MCF7 breast
  TGI: 35.9 µM
MDA-MB-231 breast
  TGI: 30.2 µM
MDA-MB-435
  TGI: 42.7 µM
MDA-N
  TGI: 38.1 µM
MOLT-4 leukemia
  TGI: 77.6 µM
NCI-H226 lung
  TGI: 34.4 µM
NCI-H23 lung
  TGI: 46.3 µM
NCI-H460 lung
  TGI: 44.7 µM
NCI-H522 lung
  TGI: 26.9 µM
NCI/ADR-RES ovarian
  TGI: 70.7 µM
OVCAR-3 ovarian
  TGI: 49.3 µM
OVCAR-5 ovarian
  TGI: 58.2 µM
OVCAR-8 ovarian
  TGI: 39.9 µM
PC-3 prostate
  TGI: 26.7 µM
RPMI-8226 leukemia
  TGI: 72.6 µM
RXF 393 renal
  TGI: 35.1 µM
SF-268 CNS
  TGI: 36.2 µM
SF-295 CNS
  TGI: 31.2 µM
SF-539 CNS
  TGI: 39 µM
SK-MEL-2 melanoma
  TGI: 74.7 µM
SK-MEL-28 melanoma
  TGI: 33.1 µM
SK-MEL-5 melanoma
  TGI: 31 µM
SK-OV-3 ovarian
  TGI: 31.4 µM
SN12C renal
  TGI: 50.4 µM
SNB-19 CNS
  TGI: 37.7 µM
SNB-75 CNS
  TGI: 25.4 µM
SR leukemia
  TGI: > 100 µM
SW-620 colon
  TGI: 34.2 µM
T-47D breast
  TGI: 39.8 µM
TK-10 renal
  TGI: 41.2 µM
U251 CNS
  TGI: > 10 µM
UACC-257 melanoma
  TGI: > 10 µM
UACC-62 melanoma
  TGI: 28.7 µM
UO-31 renal
  TGI: 35.6 µM

## Cn1c(=O)c2[nH]c(CCNC(=O)c3ccccc3)nc2n(C)c1=O
786-0 renal
  TGI: > 100 µM
A498 renal
  TGI: > 100 µM
A549 NSCLC
  TGI: > 100 µM
ACHN renal
  TGI: > 100 µM
BT-549 breast
  TGI: > 100 µM
CAKI-1 renal
  TGI: > 100 µM
CCRF-CEM leukemia
  TGI: > 100 µM
DU-145 prostate
  TGI: > 100 µM
EKVX NSCLC
  TGI: > 100 µM
HCC-2998 colon
  TGI: > 100 µM
HCT-116 colon
  TGI: > 100 µM
HCT-15 colon
  TGI: > 100 µM
HOP-62 NSCLC
  TGI: > 100 µM
HOP-92 NSCLC
  TGI: > 100 µM
HS 578T breast
  TGI: > 100 µM
HT29 colon
  TGI: > 100 µM
IGROV1 ovarian
  TGI: > 100 µM
K-562 leukemia
  TGI: > 100 µM
KM12 colon
  TGI: > 100 µM
LOX IMVI melanoma
  TGI: > 100 µM
M14 melanoma
  TGI: > 100 µM
MALME-3M melanoma
  TGI: > 100 µM
MDA-MB-231 breast
  TGI: > 100 µM
MDA-MB-435
  TGI: > 100 µM
MDA-N
  TGI: > 100 µM
MOLT-4 leukemia
  TGI: > 100 µM
NCI-H226 lung
  TGI: > 100 µM
NCI-H23 lung
  TGI: > 100 µM
NCI-H460 lung
  TGI: > 100 µM
NCI-H522 lung
  TGI: > 100 µM
NCI/ADR-RES ovarian
  TGI: > 100 µM
OVCAR-3 ovarian
  TGI: > 100 µM
OVCAR-4 ovarian
  TGI: > 100 µM
OVCAR-5 ovarian
  TGI: > 100 µM
OVCAR-8 ovarian
  TGI: > 100 µM
PC-3 prostate
  TGI: > 100 µM
RXF 393 renal
  TGI: > 100 µM
SF-268 CNS
  TGI: > 100 µM
SF-295 CNS
  TGI: > 100 µM
SK-MEL-2 melanoma
  TGI: > 100 µM
SK-MEL-28 melanoma
  TGI: > 100 µM
SK-MEL-5 melanoma
  TGI: > 100 µM
SN12C renal
  TGI: > 100 µM
SNB-19 CNS
  TGI: > 100 µM
SNB-75 CNS
  TGI: > 100 µM
SR leukemia
  TGI: > 100 µM
SW-620 colon
  TGI: > 100 µM
T-47D breast
  TGI: > 100 µM
TK-10 renal
  TGI: > 100 µM
U251 CNS
  TGI: > 100 µM
UACC-257 melanoma
  TGI: > 100 µM
UACC-62 melanoma
  TGI: > 100 µM
UO-31 renal
  TGI: > 100 µM

Source: PubChem BioAssay (NCI)
